# Assays:
# [1] = test system: kit*8AP (DNA, G4, 2-aminopurine at 8 (replaces A)) GGCGAGGAGGGGCGTGGCCGGC; experiment: 2-aminopurine fluorescence titration; settings: 150 mM K+; 10 mM Tris, pH 7.5, 25 °C; apparent; 0.5 µM DNA, single-site fit
# [2] = test system: kit* (DNA, G4) GGCGAGGAGGGGCGTGGCCGGC; experiment: SPR steady state; settings: 150 mM K+; 10 mM Tris, pH 7.5, 25 °C; apparent; one-site plus non-specific fit; DMSO < 1%
# [3] = test system: kit* (DNA, G4) GGCGAGGAGGGGCGTGGCCGGC; experiment: CD titration; settings: K+ (150 mM in Methods, 100 mM in Figure S3 legend); 10 mM Tris, pH 7.5, 25 °C; 4 µM DNA
# [4] = test system: kit2-kit* (DNA, G4) CGGGCGGGCGCGAGGGAGGGGAGGCGAGGAGGGGCGTGGCCGGC; experiment: CD titration; settings: K+ (150 mM in Methods, 100 mM in Figure S3 legend); 10 mM Tris, pH 7.5, 25 °C; 4 µM DNA
# [5] = test system: kit*5AP (DNA, G4, 2-aminopurine at 5 (replaces A)) GGCGAGGAGGGGCGTGGCCGGC; experiment: 2-aminopurine fluorescence titration; settings: 150 mM K+; 10 mM Tris, pH 7.5, 25 °C; apparent; 0.5 µM DNA, single-site fit
Kd [1] [µM],Kd [2] [µM],binding [3],binding [4],Kd [5] [µM],SMILES
1.78 ± 0.15,6.71 ± 1.26,yes,yes,2.24 ± 0.17,C(=NNC1=NCCN1)c1cccc2cc3cccc(C=NNC4=NCCN4)c3cc12
0.31 ± 0.02,0.51 ± 0.09,yes,yes,0.32 ± 0.02,NCCCC[C@H](N)C(=O)NCCC(=O)Nc1cccc2c1C(=O)c1cccc(NC(=O)CCNC(=O)[C@@H](N)CCCCN)c1C2=O

# Reference: publication PMC7795597 (2020)
